The values that follow come from patent US20240199605A1, “SMALL MOLECULAR INHIBITORS OF NF-kB INDUCING KINASE” (Janssen Pharmaceutica NV, priority 2019, published 2024).

Test [1] concerns p-IKKα levels in L363 (NIK translocated multiple myeloma) cells. Put plainly: Effect of compounds on p-IKKα levels in L363 cells (AlphaLISA SureFire Ultra). The class given is cell-based, human. The conditions noted are these: Homo sapiens, L-363, 6 h, BAFF stimulated, MG132, 6 h, average of values, read-out: Assay 2 IC50. The procedure, abridged: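 Inhibition of p-IKKα (Ser176/180) read by AlphaLISA after 6 h, 37 °C compound exposure (11-point 1:3 series, 0.3% DMSO) of L363 cells pre-incubated overnight ± 250 ng/ml BAFF and plated ± BAFF ± 10 μM MG132. Normalised to BAFF/MG132/DMSO and unstimulated controls; IC50 by sigmoidal fitting, duplicates.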
In general terms: In Alpha technology, singlet oxygen from a donor bead excites a nearby acceptor bead.

In test [2] the target is recombinant human NF-kappaB-inducing kinase (NIK/MAP3K14) (Homo sapiens (Human), UniProt Q99558). Put plainly: Inhibition of auto-phosphorylation of recombinant human NIK/MAP3K14 (AlphaScreen). The format is biochemical. The settings on record: NIK auto-phosphorylation, 5 μM ATP, 1 nM NIK, 2 h at 25° C.; average of values. In outline: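 GST-tagged NIK (1 nM) auto-phosphorylated with 5 μM ATP for 2 h at 25° C. in 50 mM Tris pH 7.5, 5 mM MgCl2, 1 mM EGTA, 1 mM DTT, 0.1 mM Na3VO4, 0.01% Tween 20 (0.7% DMSO). Detected by AlphaScreen via anti-phospho-IKK Ser176/180 antibody; IC50 from sigmoidal fit of % inhibition versus log concentration.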
recombinant human NF-kappaB-inducing kinase (NIK/MAP3K14), sequence (Q99558 whole entry): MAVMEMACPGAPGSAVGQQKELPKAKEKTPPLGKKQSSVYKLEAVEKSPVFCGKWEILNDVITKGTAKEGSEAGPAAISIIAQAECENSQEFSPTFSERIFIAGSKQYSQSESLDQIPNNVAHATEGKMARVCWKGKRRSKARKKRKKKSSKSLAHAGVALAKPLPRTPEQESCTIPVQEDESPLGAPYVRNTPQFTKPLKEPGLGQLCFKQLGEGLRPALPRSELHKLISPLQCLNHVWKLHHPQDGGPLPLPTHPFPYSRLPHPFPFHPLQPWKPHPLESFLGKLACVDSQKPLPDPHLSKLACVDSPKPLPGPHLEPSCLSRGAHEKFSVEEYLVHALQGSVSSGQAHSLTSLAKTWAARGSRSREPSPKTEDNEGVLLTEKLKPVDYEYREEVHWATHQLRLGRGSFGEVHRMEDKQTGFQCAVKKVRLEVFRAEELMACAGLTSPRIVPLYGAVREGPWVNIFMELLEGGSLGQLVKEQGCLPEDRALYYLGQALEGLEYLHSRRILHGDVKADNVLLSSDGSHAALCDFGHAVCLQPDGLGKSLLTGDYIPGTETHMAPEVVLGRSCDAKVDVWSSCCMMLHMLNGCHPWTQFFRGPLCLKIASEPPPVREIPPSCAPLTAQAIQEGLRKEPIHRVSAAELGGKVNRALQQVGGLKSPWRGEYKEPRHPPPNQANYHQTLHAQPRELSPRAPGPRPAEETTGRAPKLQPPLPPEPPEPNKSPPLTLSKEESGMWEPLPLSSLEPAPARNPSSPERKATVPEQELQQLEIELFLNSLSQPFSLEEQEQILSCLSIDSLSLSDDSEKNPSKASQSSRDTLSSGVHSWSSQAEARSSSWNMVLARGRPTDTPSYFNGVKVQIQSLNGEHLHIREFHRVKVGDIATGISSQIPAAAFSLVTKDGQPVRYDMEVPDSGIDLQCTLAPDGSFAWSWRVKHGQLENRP

Some results are limits rather than exact numbers.

For orientation: IC50 means the concentration that inhibits the measured activity by half.

Consider `Cc1ccc(-c2nc3c(N)ncnc3s2)cc1C#C[C@]1(O)CCN(C)C1=O` [Example 152, (R)-3-((5-(7-Aminothiazolo[5,4-d]pyrimidin-2-yl)-2-methylphenyl)ethynyl)-3-hydroxy-1-methylpyrrolidin-2-one], for which the IC50 in test [1] is 200 nM; in test [2], 3.8 nM.
For `Cc1c(C#C[C@]2(O)CCN(C)C2=O)cccc1-c1nc2c(N)ncnc2s1` [Example 154, (R)-3-((3-(7-Aminothiazolo[5,4-d]pyrimidin-2-yl)-2-methylphenyl)ethynyl)-3-hydroxy-1-methylpyrrolidin-2-one], the values for the IC50 in test [1] and in test [2] were more than 5000 nM and 620 nM, respectively.
Turning to `Nc1ncnc2cnc(-c3cccc(C#C[C@@]4(O)CCc5cccnc54)c3)nc12` [Example 155, (S)-7-((3-(8-Aminopyrimido[5,4-d]pyrimidin-2-yl)phenyl)ethynyl)-6,7-dihydro-5H-cyclopenta[b]pyridin-7-ol], the IC50 in test [1] was 6.1 nM; in test [2], not above 0.5 nM.
Regarding `Cc1nc(N)c2nc(-c3cccc(C#C[C@]4(O)CCN(C)C4=O)c3)nc(C)c2n1` [Example 156, (R)-3-((3-(8-Amino-4,6-dimethylpyrimido[5,4-d]pyrimidin-2-yl)phenyl)ethynyl)-3-hydroxy-1-methylpyrrolidin-2-one], the IC50 in test [1] turned out to be 16 nM; in test [2] it was 1.1 nM.
Regarding `Cc1nc(N)c2nc(-c3cccc(C#C[C@](C)(O)c4cnc(C)s4)c3)ccc2n1` [Example 157, (S)-4-(3-(4-Amino-2-methylpyrido[3,2-d]pyrimidin-6-yl)phenyl)-2-(2-methylthiazol-5-yl)but-3-yn-2-ol], the IC50 in test [1] was more than 5000 nM; in test [2], 3790 nM.
In the case of `Cc1nc(N)c2nc(-c3cccc(C#C[C@@](C)(O)c4cnc(C)s4)c3)ccc2n1` [Example 158, (R)-4-(3-(4-Amino-2-methylpyrido[3,2-d]pyrimidin-6-yl)phenyl)-2-(2-methylthiazol-5-yl)but-3-yn-2-ol], the IC50 in test [1] is more than 5000 nM; in test [2], 1930 nM.
In the same order, the values of `CN1CC[C@@](O)(C#Cc2cccc(N3CCc4ncnc(N)c4C3)c2)C1=O` [Example 159, (R)-3-((3-(4-Amino-7,8-dihydropyrido[4,3-d]pyrimidin-6(5H)-yl)phenyl)ethynyl)-3-hydroxy-1-methylpyrrolidin-2-one] are 130 nM and 1.3 nM.
Turning to `[2H]c1nc(N)c2nc(-c3cc(C#C[C@]4(O)CCN(C)C4=O)ccc3OC)ccc2n1` [Example 160, (R)-3-((3-(4-Aminopyrido[3,2-d]pyrimidin-6-yl-2-d)-4-methoxyphenyl)ethynyl)-3-hydroxy-1-methylpyrrolidin-2-one], the IC50 in test [1] was determined as 19 nM; in test [2] it was 2.4 nM.
`COc1ccc(C#C[C@]2(O)CCN(C)C2=O)cc1-c1ccc2nc(C)nc(N)c2n1` [Example 161, (R)-3-((3-(4-Amino-2-methylpyrido[3,2-d]pyrimidin-6-yl)-4-methoxyphenyl)ethynyl)-3-hydroxy-1-methylpyrrolidin-2-one]: the IC50 turned out to be 78 nM in test [1] and 7 nM in test [2].
In the same order, the values of `Cc1nc(N)c2nc(-c3cccc(C#C[C@](C)(O)c4scnc4C)c3)ccc2n1` [Example 162, (S)-4-(3-(4-Amino-2-methylpyrido[3,2-d]pyrimidin-6-yl)phenyl)-2-(4-methylthiazol-5-yl)but-3-yn-2-ol] are more than 5000 nM and more than 5000 nM.
With `Cc1nc(N)c2nc(-c3cccc(C#C[C@@](C)(O)c4scnc4C)c3)ccc2n1` [Example 163, (R)-4-(3-(4-Amino-2-methylpyrido[3,2-d]pyrimidin-6-yl)phenyl)-2-(4-methylthiazol-5-yl)but-3-yn-2-ol], the IC50 was more than 5000 nM in test [1] and 350 nM in test [2].
`Cc1nc(N)c2nc(-c3cccc(C#C[C@@](C)(O)c4nccs4)c3)ccc2n1` [Example 164, (R)-4-(3-(4-Amino-2-methylpyrido[3,2-d]pyrimidin-6-yl)phenyl)-2-(thiazol-2-yl)but-3-yn-2-ol]: the values for the 50% inhibitory concentration (IC50) in test [1] and in test [2] were 78 nM and 0.7 nM, respectively.
Turning to `Cc1nc(N)c2nc(-c3cccc(C#C[C@](C)(O)c4ncc(C)s4)c3)ccc2n1` [Example 166, (S)-4-(3-(4-Amino-2-methylpyrido[3,2-d]pyrimidin-6-yl)phenyl)-2-(5-methylthiazol-2-yl)but-3-yn-2-ol], the results for the IC50 in test [1] and in test [2] were more than 5000 nM and 4700 nM, respectively.
Regarding `Cc1nc(N)c2nc(-c3cccc(C#C[C@@](C)(O)c4ncc(C)s4)c3)ccc2n1` [Example 167, (R)-4-(3-(4-Amino-2-methylpyrido[3,2-d]pyrimidin-6-yl)phenyl)-2-(5-methylthiazol-2-yl)but-3-yn-2-ol], the IC50 is 3470 nM in test [1] and 12 nM in test [2].
For the molecule `[2H]c1nc(N)c2nc(-c3cccc(C#C[C@]4(O)CCN(C)C4=O)c3)nc(C)c2n1` [Example 168, (R)-3-((3-(8-Amino-4-methylpyrimido[5,4-d]pyrimidin-2-yl-6-d)phenyl)ethynyl)-3-hydroxy-1-methylpyrrolidin-2-one], the IC50 came to 4.2 nM in test [1] and 2.2 nM in test [2].
With `CN1CC[C@@](O)(C#Cc2cccc(-c3ccc4c(c3)c(N)nn4C(=O)OC(C)(C)C)c2)C1=O` [Example 169, (R)-tert-Butyl 3-amino-5-[3-[2-(3-hydroxy-1-methyl-2-oxo-pyrrolidin-3-yl)ethynyl]phenyl]indazole-1-carboxylate], the IC50 in test [1] was more than 5000 nM; in test [2], 1210 nM.
Regarding `CN1CC[C@@](O)(C#Cc2cccc(-c3ccc4nc(CF)nc(N)c4n3)c2)C1=O` [Example 170, (R)-3-((3-(4-Amino-2-(fluoromethyl)pyrido[3,2-d]pyrimidin-6-yl)phenyl)ethynyl)-3-hydroxy-1-methylpyrrolidin-2-one], the figures for the IC50 in test [1] and in test [2] were 22 nM and 0.8 nM, respectively.
For the molecule `CN1CC[C@@](O)(C#Cc2cccc(-c3ccc4c(CN5CCCC5)cnc(N)c4n3)c2)C1=O` [Example 171, (R)-3-[2-[3-[8-Amino-5-(pyrrolidin-1-ylmethyl)-1,7-naphthyridin-2-yl]phenyl]ethynyl]-3-hydroxy-1-methyl-pyrrolidin-2-one], the IC50 in test [1] came to 180 nM; in test [2], 4 nM.
For the molecule `CN(C)Cc1cnc(N)c2nc(-c3cccc(C#C[C@]4(O)CCN(C)C4=O)c3)ccc12` [Example 172, (R)-3-[2-[3-[8-Amino-5-(dimethylaminomethyl)-1,7-naphthyridin-2-yl]phenyl]ethynyl]-3-hydroxy-1-methyl-pyrrolidin-2-one], the results for the IC50 in test [1] and in test [2] were 400 nM and 20 nM, respectively.
Regarding `CN1CC[C@@](O)(C#Cc2cccc(-c3ccc4nc(CO)nc(N)c4n3)c2)C1=O` [Example 173, (R)-3-((3-(4-Amino-2-(hydroxymethyl)pyrido[3,2-d]pyrimidin-6-yl)phenyl)ethynyl)-3-hydroxy-1-methylpyrrolidin-2-one], the IC50 stood at 180 nM in test [1] and 12 nM in test [2].
In the case of `CN1CC[C@@](O)(C#Cc2cccc(-c3ccc4[nH]nc(N)c4c3)c2)C1=O` [Example 174, (R)-3-[2-[3-(3-Amino-1H-indazol-5-yl)phenyl]ethynyl]-3-hydroxy-1-methyl-pyrrolidin-2-one], the IC50 is more than 5000 nM in test [1] and 830 nM in test [2].
Take `CN1CC[C@@](O)(C#Cc2cccc(-c3ccc4nc(C5CC5)nc(N)c4n3)c2)C1=O` [Example 175, (R)-3-((3-(4-Amino-2-cyclopropylpyrido[3,2-d]pyrimidin-6-yl)phenyl)ethynyl)-3-hydroxy-1-methylpyrrolidin-2-one]: the IC50 in test [1] was 230 nM; in test [2], 2.4 nM.
Take `CN1CC[C@@](O)(C#Cc2cccc(-c3ccc4nc(C(F)(F)F)nc(N)c4n3)c2)C1=O` [Example 176, (R)-3-((3-(4-Amino-2-(trifluoromethyl)pyrido[3,2-d]pyrimidin-6-yl)phenyl)ethynyl)-3-hydroxy-1-methylpyrrolidin-2-one]: the IC50 in test [1] is 81 nM; in test [2], 1.4 nM.
In the same order, the values of `COc1ccc(C#C[C@]2(O)CCN(C)C2=O)cc1-c1ncc2ncnc(N)c2n1` [Example 177, (R)-3-((3-(8-Aminopyrimido[5,4-d]pyrimidin-2-yl)-4-methoxyphenyl)ethynyl)-3-hydroxy-1-methylpyrrolidin-2-one] are 66 nM and 5.1 nM.
The matching figures for `Cc1nc(N)c2nc(-c3cccc(C#C[C@]4(O)CCN(C)C4=O)c3)c(C)cc2n1` [Example 178, (R)-3-((3-(4-Amino-2,7-dimethylpyrido[3,2-d]pyrimidin-6-yl)phenyl)ethynyl)-3-hydroxy-1-methylpyrrolidin-2-one]: 820 nM and 18 nM.
For the molecule `CN1CC[C@@](O)(C#Cc2cccc(-n3cc4c(N)ncnc4n3)c2)C1=O` [Example 179, (R)-3-((3-(4-Amino-2H-pyrazolo[3,4-d]pyrimidin-2-yl)phenyl)ethynyl)-3-hydroxy-1-methylpyrrolidin-2-one], the half-maximal inhibitory concentration (IC50) in test [1] is more than 5000 nM; in test [2], 1170 nM.
As to `Cc1csc([C@](C)(O)C#Cc2cccc(-c3ccc4nc(C)nc(N)c4n3)c2)n1` [Example 180, (R)-4-(3-(4-Amino-2-methylpyrido[3,2-d]pyrimidin-6-yl)phenyl)-2-(4-methylthiazol-2-yl)but-3-yn-2-ol], the IC50 in test [1] is more than 5000 nM; in test [2], 410 nM.
